In ChEMBL document CHEMBL1143556 (J Med Chem, 2005):

How the values were obtained:
[1] = molecular target: T1, Peroxisome proliferator-activated receptor alpha (Homo sapiens, UniProt Q07869); assay: Inhibition of human Peroxisome proliferator activated receptor alpha
T1 sequence (Q07869 whole entry): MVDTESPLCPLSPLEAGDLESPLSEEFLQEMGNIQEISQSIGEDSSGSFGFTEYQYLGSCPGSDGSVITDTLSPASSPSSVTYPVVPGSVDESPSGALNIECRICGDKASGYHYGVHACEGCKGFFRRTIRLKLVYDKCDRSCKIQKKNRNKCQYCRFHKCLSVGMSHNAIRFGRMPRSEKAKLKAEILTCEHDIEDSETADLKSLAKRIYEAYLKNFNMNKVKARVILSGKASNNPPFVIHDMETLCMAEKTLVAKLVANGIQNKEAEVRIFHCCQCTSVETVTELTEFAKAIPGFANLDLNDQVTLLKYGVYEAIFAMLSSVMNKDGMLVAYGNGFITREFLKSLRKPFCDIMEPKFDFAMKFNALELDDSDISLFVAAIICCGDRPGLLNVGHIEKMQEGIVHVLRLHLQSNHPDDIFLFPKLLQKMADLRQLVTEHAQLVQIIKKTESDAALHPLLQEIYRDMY

[2] = molecular target: T1, Peroxisome proliferator-activated receptor alpha; assay: Effective concentration against human Peroxisome proliferator activated receptor alpha
Rattus norvegicus [3] = assay: Clearance was measured in male SD rat after 5 mg/kg intra arterial dosage; n=3
Rattus norvegicus [4] = assay: Half life was measured in male SD rat after 5 mg/kg intra arterial dosage; n=3
Rattus norvegicus [5] = assay: Time to maximum concentration was measured in male SD rat after 10 mg/kg oral dosage; n=3
[6] = molecular target: T2, Peroxisome proliferator-activated receptor gamma (Homo sapiens, UniProt P37231)
T2 sequence (P37231 whole entry): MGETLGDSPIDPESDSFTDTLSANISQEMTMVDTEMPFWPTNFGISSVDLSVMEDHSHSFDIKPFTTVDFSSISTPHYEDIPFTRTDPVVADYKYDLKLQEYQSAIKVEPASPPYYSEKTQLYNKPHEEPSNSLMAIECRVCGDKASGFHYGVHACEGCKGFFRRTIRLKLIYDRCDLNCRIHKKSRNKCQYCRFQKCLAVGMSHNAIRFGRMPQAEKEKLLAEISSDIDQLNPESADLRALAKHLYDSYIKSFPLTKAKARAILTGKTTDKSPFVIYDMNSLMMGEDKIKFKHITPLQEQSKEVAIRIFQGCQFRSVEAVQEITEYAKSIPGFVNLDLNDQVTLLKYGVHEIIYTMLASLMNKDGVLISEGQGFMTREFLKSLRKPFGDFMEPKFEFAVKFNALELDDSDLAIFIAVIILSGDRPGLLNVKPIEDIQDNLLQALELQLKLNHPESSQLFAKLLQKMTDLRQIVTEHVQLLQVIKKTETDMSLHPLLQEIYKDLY

[7] = molecular target: T2, Peroxisome proliferator-activated receptor gamma; assay: Inhibition of human Peroxisome proliferator activated receptor gamma

SMILES | IC50 [1] | EC50 [2] | CL (mL.min-1.kg-1) (Rattus norvegicus [3]) | T1/2 (Rattus norvegicus [4]) | Tmax (Rattus norvegicus [5]) | EC50 [6] | IC50 [7]
COc1ccc(OC(=O)N(CC(=O)O)Cc2ccc(OCCc3nc(-c4ccccc4)oc3C)cc2)cc1 [MURAGLITAZAR] | 250 nM | 320 nM | 3 | 7.3 h | 0.4 h | – | –
CC(C)(Oc1ccc(C(=O)c2ccc(Cl)cc2)cc1)C(=O)O [FENOFIBRIC ACID] | > 10000 nM | > 10000 nM | – | – | – | – | –
CCCCCCCN(CCc1ccc(O[C@@](C)(CC)C(=O)O)cc1)C(=O)Nc1ccc(F)cc1F | 538 nM | < 20 nM | – | – | – | 425 nM | 316 nM
Cc1oc(-c2ccccc2)nc1CCOc1ccc(CN(CC(=O)O)Cc2ccccc2)cc1 | 1400 nM | 20 nM | – | – | – | 1500 nM | 4800 nM
